# Data: patent publication US20130210907A1, “METHOD FOR PREVENTING OR TREATING ENTEROCHROMAFFIN CELL HYPERPLASIA-RELATED DISEASES BY QUERCETIN ADMINISTRATION” (HONG KONG BAPTIST UNIVERSITY, priority 2012, published 2013)
# Experiments:
# PI-IBS rats [1] = assay: Abdominal withdrawal reflex (AWR) test: pain threshold pressure to colorectal distension; assay type: in vivo, rat; conditions: for Pain threshold pressure, after treatment: 2 weeks
# Method: Sprague-Dawley male rats (Laboratory Animal Services Centre, The Chinese University of Hong Kong) aged 6 weeks with body weight around 220 g are used to develop PI-IBS model. Briefly, rats are fasted for 24 h, and deeply anesthetized with chloral hydrate (350 mg.kg^−1, i.p.). After induction of colitis by 2,4,6-trinitrobenzenesulfonic acid solution (TNBS, 5 mg/0.8 ml/rat, in 50% ethanol, 8 cm from anus) administration, the rats are allowed to recover for at least 4 weeks before use. The control rats are similarly administered with 0.8 ml saline instead of TNBS. Only the rats that have completely recovered from the initial inflammation and acquired visceral hypersensitivity are used as the PI-IBS rats.
# 6 groups of 12 rats are tested. Normal rats (Group 1) are treated with water. PI-IBS rats are randomly divided into 5 groups and orally treated with water (Group 2), Doxantrazole (mast cell stabilizer, 30 mg/kg/d, Group 3), and Quercetin (Group 4-6) at the dose of 5, 10, and 20 mg/kg/d, respectively. After 2 weeks daily drug administration, 5 rats in each group are used to measure pain threshold pressure by abdominal withdrawal reflex (AWR) test, and the remaining […] is used for electromyography (EMG) recording.
# AWR test is performed as previously described in Al-Chaer E D, Kawasaki M, Pasricha P J. A new model of chronic visceral hypersensitivity in adult rats induced by colon irritation during postnatal development. Gastroenterology. 2000 November; 119(5):1276-85. Briefly, rats are lightly anesthetized with ether; a latex balloon is inserted into the descending colon. Rats are then allowed to recover for about 1 h. The tube of the balloon is connected via a Y-connector to a sphygmomanometer and colorectal distension is applied in increments of 5 mmHg until a visible contraction of the abdominal wall is observed by an investigator blinded to the treatment. The pain threshold pressure is defined as the intensity of colorectal distension (CRD) that elicited an observable AWR, i.e. a sudden and persistent abdominal muscle contraction with abdomen lift off the platform. The pain threshold pressure of all groups is recorded and repeated five times with intervals of at least 5 minutes for recovery. EMG recording are conducted as previously described in Tammpere A, Brusberg M, Axenborg J, Hirsch I, Larsson H, Lindstrom E. Evaluation of pseudo-affective responses to noxious colorectal distension in rats by manometric recordings. Pain. 2005 August; 116(3):220-6 and Li Z, Zhang X J, Xu H X, Sung J J, Bian Z X. Intracolonical administration of protease-activated receptor-2 agonists produced visceral hyperalgesia by up-regulating serotonin in the colon of rats. Eur J. Pharmacol. 2009 Mar. 15; 606(1-3):199-204. Firstly, a surgical operation is made to implant the electrodes into the left external abdominal oblique muscles 7 days before EMG recording. After the last drug administration, a flexible latex balloon is inserted into the rat descending colon, and the rats are allowed to accommodate for 1 h. CRD is initiated, and the EMG signal is amplified and filtered by Power Lab System. Graded colorectal distension (20, 40, 60, and 80 mmHg; 20 s duration; 2 min inter-stimulus interval) is carried out for total three cycles to each rat. The changes of area under the curve (AUC) are calculated using that during 20 s distension period over the 20 s baseline.
# normal rats = assay: Colonic 5-HT content in normal rats; assay type: in vivo, rat; conditions: 10 mg/kg i.g., 14 days
# Method: (§1) 5-HT content in the colon tissue is assayed based on our previously reported procedure in Qi S D, Tian S L, Xu H X, Sung J J, Bian Z X. Quantification of luminally released serotonin in rat proximal colon by capillary electrophoresis with laser-induced fluorescence detection. Anal Bioanal Chem. 2009 April; 393(8):2059-66. Briefly, the colon segment is homogenized in 15% iced trichloroacetic acid; for 2 min and stored at 4° C. for 2 h. After centrifuge at 10,000 G for 15 min, the supernatant of each sample is filtered using 0.22 μm filters and extracted with diethyl ether for five times to remove the trichloroacetic acid. The prepared samples are added to derivatization solution (150 mM sodium tetraborate, 25% acetonitrile, 2 mM CFSE) and incubated for […] in dark at room temperature. The 5-HT content is analyzed by capillary electrophoresis with laser-induced fluorescence detection and expressed as nanogram per milligram (wet weight of tissue).
# To identify whether the effects of Quercerin in PI-IBS rats are specific, pain threshold pressure, colonic EC cell number and 5-HT content are further evaluated in normal rats treated with Quercetin. […] After the final drug administration, pain threshold pressure, colonic EC cell density and 5-HT content are evaluated and the methods used here are as same as that shown in above experiments.
# cyclin B1 = assay: Western blot of cyclin B1 in QGP-1 cells; assay type: cell-based, human; conditions: QGP-1, 50-100 μM, 24 h
# Method: After drug treatment, the cells are lysed and centrifuged to collect the protein extract After determination of protein content, the samples protein are denatured at 100° C. for 5 min Proteins are separated by 10-12% SDS-PAGE and transferred to PVDF membranes (Bio-Rad, CA). After blocking with 5% nonfat milk for 1 h at room temperature, the membranes are incubated overnight at 4° C. with primary antibodies (mouse anti-cyclin BE 1:500, Abcam; goat anti-p-Cdc2:1:500, Santa Cruz; mouse anti-p21: 1:500, BD Bioscience). After washing three times in TBST, the membranes where incubated with the appropriate secondary antibodies (1:2000, Invitrogen) for 1 h at room temperature. The immunoreaction is detected using ECL Western blotting kit (ECL, Amersham, UK). Bands are visualized on Biomax X-ray film, and optical density of each band is semi-quantified by software (Image J.NIH). In order to adjust for any variations in loading, all detected protein bands are normalized to β-actin levels.
# PI-IBS rats [2] = assay: Mechanical stimuli (CRD)-induced 5-HT release: colonic 5-HT content with or without CRD; assay type: in vivo, rat; conditions: for 5-HT content of tissue, +CRD: after CRD; for 5-HT content of tissue, -CRD: without CRD; for Decrease of colon tissue 5-HT content after CRD application: not significant
# Method: as §1
# To determine whether mechanical stimuli (CRD) can induce colonic 5-HT release in PI-IBS rats, and whether Quercetin has effect on it, 5-HT content in colonic tissue is evaluated in rats with or without AWR test. The colon tissues for 5-HT content determination are collected from the rats from Example 1 and Example 2, and the methods for 5-HT content determination are followed as described in Example 2.
compound,measurement,setting,value
"O=c1c(O)c(-c2ccc(O)c(O)c2)oc2cc(O)cc(O)c12 [Quercetin, 2-(3,4-dihydroxyphenyl)-3,5,7-trihydroxy-4H-chromen-4-one]","Pain threshold pressure, after treatment",PI-IBS rats [1]; 5 mg/kg i.g. daily,32 ± 1.9 mmHg
same,"Pain threshold pressure, before treatment",PI-IBS rats [1]; 5 mg/kg i.g. group,25 ± 1.9 mmHg
same,"Pain threshold pressure, after treatment",PI-IBS rats [1]; 10 mg/kg i.g. daily,33 ± 1.8 mmHg
same,"Pain threshold pressure, before treatment",PI-IBS rats [1]; 10 mg/kg i.g. group,25 ± 1.1 mmHg
same,"Pain threshold pressure, after treatment",PI-IBS rats [1]; 20 mg/kg i.g. daily,35 ± 1.3 mmHg
same,"Pain threshold pressure, before treatment",PI-IBS rats [1]; 20 mg/kg i.g. group,24 ± 1.1 mmHg
same,5-HT content,normal rats,4.06 ± 0.48 ng/mg
same,Protein level of cyclin B1,cyclin B1,significantly decrease
same,"5-HT content of tissue, +CRD",PI-IBS rats [2]; 5 mg/kg i.g.,4.96 ± 0.91^ ng/mg
same,"5-HT content of tissue, -CRD",PI-IBS rats [2]; 5 mg/kg i.g.,5.15 ± 0.58 ng/mg
same,"5-HT content of tissue, +CRD",PI-IBS rats [2]; 10 mg/kg i.g.,4.29 ± 0.58^ ng/mg
same,"5-HT content of tissue, -CRD",PI-IBS rats [2]; 10 mg/kg i.g.,4.63 ± 0.92 ng/mg
same,"5-HT content of tissue, +CRD",PI-IBS rats [2]; 20 mg/kg i.g.,4.01 ± 1.14 ng/mg
same,"5-HT content of tissue, -CRD",PI-IBS rats [2]; 20 mg/kg i.g.,5.50 ± 0.65^ ng/mg
same,Decrease of colon tissue 5-HT content after CRD application,PI-IBS rats [2]; low dose,~3.67%
same,Decrease of colon tissue 5-HT content after CRD application,PI-IBS rats [2]; median dose,~7.34%
